Results published in patent US12343335B2, “Pharmaceutical composition for treating multiple sclerosis on basis of AMPK inhibitory function and zinc homeostasis control function” (ZINCURE CORP., priority 2019, dated 2025).

How the values were obtained:
Type in all cases: in vivo, C57BL/6 female mice
[1] = test system: MOG35-55-induced experimental autoimmune encephalomyelitis (EAE); test: EAE clinical symptom assessment and incidence rate, 21 days after immunization; settings: EAE mice, 1H10 intraperitoneally once a day, vs vehicle
Description: The experimental animals used in the present invention are an 8-week-old, C57BL/6 female mice supplied from Dae Han BioLink, Co., Ltd. (Korea). These mice were bred in an environment controlled by temperature and humidity, and feed and water were fed freely.
The present inventors induced experimental autoimmune encephalomyelitis (EAE), an animal model of multiple sclerosis, by subcutaneously injecting Myelin oligodendrocyte glycoprotein 35-55 (MOG35-55) peptide antigen into C57BL/6 female mice (FIG. 1A). For this, MOG35-55 (Ana spec, USA) and Complete freund's adjuvant (CFA) were first prepared, and MOG35-55 (2 mg/ml) was dissolved in Phosphate buffered saline (lx PBS, Sigma), and then the 25 ml of CFA was prepared by dispending 25 ml of incomplete freund's adjuvant (IFA. Sigma) in a 50 ml conical tube. Then, in a fume hood, Mycobacterium tuberculosis H37Ra (100 mg; Difco, USA) was added to the IFA in order to prepare CFA and store it in the refrigerator after vortexing before use. […] After the immunization, the mice's body weight and clinical symptoms were measured every day, and the degree of EAE progression was evaluated based on specific clinical symptoms. […]
(§1) EAE clinical symptom was evaluated based on previous studies (Jones et al., J. Neuroimmunol. 199(1-2): 83-93. 2008). […]

spinal cord of EAE mice = test: Immunohistochemistry of spinal cord of EAE mice (CD4, CD8, CD20, IgG leakage)
Method: (§2) The present inventors induced experimental autoimmune encephalomyelitis (EAE), an animal model of multiple sclerosis, by subcutaneously injecting Myelin oligodendrocyte glycoprotein 35-55 (MOG35-55) peptide antigen into C57BL/6 female mice (FIG. 1A). For this, MOG35-55 (Ana spec, USA) and Complete freund's adjuvant (CFA) were first prepared, and MOG35-55 (2 mg/ml) was dissolved in Phosphate buffered saline (lx PBS, Sigma), and then the 25 ml of CFA was prepared by dispending 25 ml of incomplete freund's adjuvant (IFA. Sigma) in a 50 ml conical tube. Then, in a fume hood, Mycobacterium tuberculosis H37Ra (100 mg; Difco, USA) was added to the IFA in order to prepare CFA and store it in the refrigerator after vortexing before use. Thereafter, MOG35-55 and CFA containing Mycobacterium tuberculosis H37Ra was mixed in the same amount and injected into both flanks of the mice. And then Pertussis toxin (4 μg/ml, List Biological Laboratories, USA) was injected intraperitoneally on the day of immunization and on the second day after immunization. After the immunization, the mice's body weight and clinical symptoms were measured every day, and the degree of EAE progression was evaluated based on specific clinical symptoms. More details on this are provided below.
On the 21st day after EAE induction, the present inventors anesthetized mice with urethane and then perfused 4% paraformaldehyde into the heart to fix the spinal cord. And then, an immunohistochemistry was performed using anti-CD4, anti-CD8, and anti-CD20 antibodies […]. Cryosections were reacted with 3% hydrogen peroxide at room temperature for 15 minutes to remove endogenous peroxidase, and then primary antibodies, rat anti-CD4 (1:50, BD Bioscience, CA, USA), anti-CD8 (1:50, BD Bioscience) and goat anti-CD20 (1:50, SantaCruz Biotechnology, USA) antibodies were reacted for 15 hours at 4° C. Thereafter, biotinylated anti-rat IgG or anti-goat IgG (1:250, Vector Laboratories, USA) was reacted at room temperature for 2 hours. […]

[2] = test system: spinal cord white matter of EAE mice; test: Zinc staining (TSQ) of spinal cord of EAE mice; settings: day 21 after EAE induction
[3] = test system: MOG35-55-induced experimental autoimmune encephalomyelitis (EAE); test: Long-term EAE model, 45 days after initial immunization; settings: intraperitoneally once a day
Method: as §2, §1

Structure (SMILES): O=C1N=C(Nc2cccc(O)c2)S/C1=C\c1c[nH]c2ccccc12 [1H10, (Z)-5-((1H-indol-3-yl)methylene)-2-((3-hydroxyphenyl)amino)thiazol-4(5H)-one]
- behavioral disorders (EAE clinical score) [1]: significantly inhibited
- incidence rate [1]: suppressed
- IgG staining due to damage of BBB (spinal cord of EAE mice; Sham group (no EAE induction), white or gray matter): not detected
- infiltration of the T and B cells (CD4, CD8, CD20) (spinal cord of EAE mice; spinal cord white matter, after EAE induction, vs vehicle): significantly inhibited
- IgG infiltration (BBB damage) (spinal cord of EAE mice; white and gray matter, 3 weeks after MOG injection): significantly reduced
- patch-like TSQ abnormal staining (zinc accumulation) [2]: significantly reduced
- clinical symptoms [3]: significantly reduced
- incidence rate [3]: significantly reduced
